# Experimental data from patent US20260021092A1, “STRUCTURE-BASED DESIGN OF A NOVEL CLASS OF DRUGS FOR NEURODEGENERATIVE DISEASE” (The Regents of the University of California, priority 2022, published 2026).
# Legend:
# Neuro2a cells = experiment: MTT cytotoxicity assay in Neuro2a cells; assay type: cell-based; conditions: final small molecule concentration of 10 μM
# Experimental: 90 μL of Neuro2a cells were plated on clear 96 well plates (Falcon 353072) at 6000 cells per well and given 24 hours to adhere to the plate. Subsequent treatment consisted of PHF samples that were coincubated with or without 100 μM of small molecules for 48 hours at 37° C., with 10 μL applied per well for a final small molecule concentration of 10 μM. After another 24-hour incubation at 37° C., 20 μL of Thiazolyl Blue Tetrazolium Bromide MTT dye (Sigma; 5 mg/mL stock in DPBS) was added to each well and further incubated for 3.5 hours at 37° C. Assay was arrested by replacement of all media with 100% DMSO and transfer to a SpectraMax MF reader. Background 700 nm readings were subtracted from the absorbance readings at 570 nm. Cells treated with 100% DMSO were designated as 0% viable and those treated only with vehicle were designated as 100% viable. Other well readings were normalized to these values.
# [1] = Brain penetration in mice (LC-MS/MRM of plasma and brain); assay type: in vivo, C57BL/6J mice; conditions: 0.5 mg/kg tail vein injection, 1 hour after dosing, range of n=3; for concentration at 1 h: C57BL/6J, mouse, plasma, intravenous
# Experimental: The compounds were administered by tail vein injection at a dose of 0.5 mg/kg of body weight to C57BL/6J mice (n=3 for each compound). […] To detect and quantify the drugs we used a sensitive, selective, and specific liquid chromatographic/tandem mass spectrometric multiple reaction monitoring (LC-MS/MRM) assay. The sample extraction protocol for plasma and brain was optimized with spiking experiments in which the authentic compounds were added to plasma and brain from drug-naive mice. […] Blood was collected by cardiac puncture and plasma was recovered as the supernatant after centrifugation (3000×g, 10 m) and stored frozen. Brains were collected by standard dissection and immediately frozen. To measure the average drug concentrations across the entire brains each left hemisphere (average wet weight 250 mg) was processed. The samples were spiked with the internal standard (IS, CNS-11F, 15 pmol in 15 μL of acetonitrile) and homogenized with a probe sonicator (Kontes microsonic cell disrupter, 30 sec) after the addition of acetonitrile/water (4:1, v/v, 2500 μL). The homogenates were divided evenly into three polypropylene microcentrifuge tubes (met) for triplicate measurements of each sample. Following centrifugation (16,100g, 5 min), the supernatants were transferred to clean mets and dried in a vacuum centrifuge. The pellets were treated with acetonitrile (25 μL) with vigorous mixing, followed by water (25 μL) with more vigorous mixing, followed by more water (50 μL) for a total volume of 100 μL. The samples were mixed again, centrifuged (16,100g, 5 min) and the supernatants were transferred to HPLC injector vials. […] These samples were processed as described above. Plasma samples (50 μL, in duplicate for each mouse) were spiked with the internal standard (IS, CNS-11F, 5 pmol in 5 μL of acetonitrile), and vigorously mixed after the addition of acetonitrile (500 μL). Following centrifugation (16,100g, 5 min), the supernatants were transferred to clean mcts and dried in a vacuum centrifuge. […] The effluent from the column was directed to an electrospray ion source (Agilent Jet Stream) connected to a triple quadrupole mass spectrometer (Agilent 6460) operating in the positive ion tandem mass spectrometric multiple reaction monitoring (MRM) mode in which the intensity of the transition of preselected parent ions to preselected fragment ions was recorded after signal optimization (collision energy, fragmentor voltage and collision cell accelerator voltage) with instrument manufacturer-supplied software (Mass Hunter). […] Peak areas were integrated and recorded, and a curve was constructed from the data obtained from the standards in which the ratio of drug peak area/IS peak area was plotted against the amount of drug in each sample. […]
# [2] = target: T1, MSA brain-derived alpha-synuclein fibrils (Homo sapiens, UniProt P37840); experiment: EM quantification of MSA brain-derived alpha-synuclein fibrils; assay type: biochemical; conditions: incubated for 3 days, compared to control
# T1 construct: Extraction of sarkosyl-insoluble alpha-synuclein fibrils from neuropathologically confirmed brain samples of patients diagnosed with MSA; from tissue; host or cells: post-mortem MSA patient brain
# Experimental: Post-mortem alpha-synuclein fibrils were extracted and purified from the brain of a patient with MSA. The presence of fibrils in the extract was confirmed by electron microscopy (FIG. 3a). […] As with the recombinant fibrils, we next aimed to quantitatively assess brain-derived fibril disaggregation by EM. Compounds were incubated with MSA fibrils for 3 days, and fibrils were quantified by EM daily, with 10-15 images taken per experimental replicate.
# For all transmission electron microscopy (TEM), 6 μL of sample were added onto 400 mesh Formvar Carbon film copper mesh grids (Electron Microscopy Sciences), then incubated for four minutes. 6 μL of 2% uranyl acetate solution was then used to stain the grids. After 2 minutes, excess solution was blotted off and grids were left to dry for a minimum of 30 minutes. TEM images were taken on a Tecnai 12 transmission electron microscope. For quantitation of fibrils, n=20 TEM images were taken per experimental condition from random points throughout the grid. Fibril counts were manually quantified per image in a blinded fashion.
# Compounds were incubated quiescently with fibril samples (both recombinant and brain-derived) for 72 hours at 37° C. […]
SMILES,neuronal cytotoxicity of compound alone (Neuro2a cells),concentration in brain tissue [1],concentration at 1 h [1],average number of imaged MSA fibrils [2]
"Cc1cc(C)c(NC(=O)Cn2nc3c4c(cccc4c2=O)-c2ccccc2-3)c(C)c1 [CNS-11, N-mesityl-2-(3-oxoindeno[1,2,3-de]phthalazin-2(3H)-yl)acetamide]",Apart from CNS-11,6.9-21.5 ng/g of brain,5 to 28.4 nM,reduction in average number of imaged fibrils
"Cc1cccc(C)c1NC(=O)Cn1nc(Cc2ccccc2)c2ccccc2c1=O [CNS-11g, 2-(4-benzyl-1-oxophthalazin-2-yl)-N-(2,6-dimethylphenyl)acetamide]",–,4.2-26.1 ng/g of brain,10.4 to 58.8 nM,reduction in average number of imaged fibrils
"O=C(O[C@@H]1Cc2c(O)cc(O)cc2O[C@@H]1c1cc(O)c(O)c(O)c1)c1cc(O)c(O)c(O)c1 [EGCG, epigallocatechin gallate]",no significant cytotoxicity,–,–,–
